Results taken from PubChem BioAssay (NCI).
Several values for one entry are separate records, joined by “and”; a condition that tells them apart may be missing. Identical values can stand only once.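 These data come from cells grown in 96-well plates and exposed to compound for 48 hours at five concentrations. Here, GI50 denotes the concentration required for 50% inhibition of growth. TGI: total growth inhibition.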

Legend:
Assay in all cases: inhibition of tumour cell growth, NCI panel, 48 h
[1] = test system: DMS 114 small cell lung
[2] = test system: DMS 273 small cell lung
[3] = test system: HOP-18 NSCLC
[4] = test system: KM20L2 colon
[5] = test system: OVCAR-3 ovarian
[6] = test system: SF-268 CNS
[7] = test system: SF-295 CNS
[8] = test system: SK-MEL-2 melanoma
[9] = test system: SN12C renal
[10] = test system: MCF7 breast

SMILES	TGI [1]	TGI [2]	TGI [3]	TGI [4]	TGI [5]	TGI [6]	TGI [7]	TGI [8]	TGI [9]	TGI [10]	GI50 [2]	GI50 [4]	GI50 [5]	GI50 [6]	GI50 [7]	GI50 [8]	GI50 [9]	GI50 [1]	GI50 [3]	GI50 [10]
COc1cc2c3c(c1OC)C(=O)C=C3N(S(=O)(=O)c1ccc(C)cc1)CC2	> 100 µM	> 100 µM	> 100 µM	> 100 µM	> 100 µM	> 100 µM	> 100 µM	> 100 µM	> 100 µM	–	–	–	–	–	–	–	–	–	–	–
CCCCCCCCCCOC(=O)c1cc[n+](C)cc1	33.1 µM	31.3 µM	> 100 µM	–	28.9 µM	35.3 µM	30.3 µM	49.1 µM	30.7 µM	–	–	–	–	–	–	–	–	–	–	–
O=C(NC(=O)c1cn(CCN2CCN(C(=O)NCCCCCCNC(=O)N3CCN(CCn4cc(C(=O)NC(=O)OCc5ccccc5)c(=O)[nH]c4=O)CC3)CC2)c(=O)[nH]c1=O)OCc1ccccc1	> 100 µM	> 100 µM	> 100 µM	> 100 µM	> 100 µM	–	> 100 µM	–	> 100 µM	–	–	–	–	–	–	–	–	–	–	–
CC1(C)C(=O)C(=Cc2ccco2)C1=O	> 100 µM	–	> 100 µM	–	–	> 100 µM	> 100 µM	> 100 µM	> 100 µM	–	–	–	–	–	–	–	–	–	–	–
Cc1ccccc1N=Nc1c(-c2ccccc2)nn(C(=O)CC(=O)Nc2cccc(Cl)c2)c1-c1ccccc1	22.1 µM	> 31.6 µM	> 31.6 µM	> 31.6 µM	> 31.6 µM	> 31.6 µM	> 31.6 µM	26 µM	22.9 µM	–	–	–	–	–	–	–	–	–	–	–
COc1ccc2c(c1)CCc1c(CO)c(COC(=O)NC(C)C)n(C)c1-2	12.3 µM	41.4 µM	13.1 µM	35.3 µM	54.9 µM	63.8 µM	57.7 µM	58 µM	45.8 µM	> 100 µM	–	–	–	–	–	–	–	–	–	–
COC(=O)N/N=C(\C)C(CN(C)C)C(c1ccccc1)c1c(O)c2ccccc2oc1=O (stereo unspecified)	> 100 µM	> 100 µM	–	> 100 µM	–	> 100 µM	> 100 µM	> 100 µM	> 100 µM	–	–	–	–	–	–	–	–	–	–	–
COC(=O)/C(=C/c1ccc(OC)cc1)C(C(=O)O)=C1CCCCC1	–	> 100 µM	–	> 100 µM	–	–	> 100 µM	> 100 µM	> 100 µM	–	–	–	–	–	–	–	–	–	–	–
COc1ccc2c(c1)[n+](=O)c(C(=O)CC(=O)C(=O)Nc1cccc(C)c1C)c(C)n2[O-]	> 100 µM	–	> 100 µM	> 100 µM	> 100 µM	> 100 µM	> 100 µM	> 100 µM	> 100 µM	–	–	–	–	–	–	–	–	–	–	–
Nc1ccccc1C(=O)NC(=O)Nc1ccc(Oc2ncc(Br)cn2)c(Cl)c1	< 0.162 µM	–	36 µM	–	–	18.9 µM	0.127 µM	5.65 µM	17.4 µM	30.9 µM	0.00485 µM	–	–	–	–	–	–	–	–	–
CC(=O)OC1C(O[C@H]2CC[C@]34O[C@]35CC[C@]3(C)C(C6(C)CC[C@@H](C(C)(C)O)O6)[C@@H](O)CC3(C)[C@@H]5CC(OC3OC(CO)C(O)C(O)C3O)C4C2(C)C)OCC(O)C1O (stereo partly specified)	> 100 µM	> 61.2 µM	> 100 µM	> 100 µM	> 100 µM	> 100 µM	> 100 µM	> 100 µM	> 100 µM	–	–	–	–	–	–	–	–	–	–	–
COc1cccc2nc3c(C(=O)NCCN(C)C)cccc3nc12	21 µM	> 100 µM	> 79.4 µM	36.8 µM	73.9 µM	1.84 µM	36.8 µM	22.7 µM	> 72.3 µM	–	–	–	–	–	–	–	–	–	–	–
CCOc1ccc(N=Cc2ccnc3ccccc23)cc1	> 61.8 µM	> 87.5 µM	> 100 µM	> 94.8 µM	73.1 µM	> 84.2 µM	> 100 µM	> 85.3 µM	> 91.5 µM	> 100 µM	–	–	–	–	–	–	–	–	–	–
C=C(CO)CC(/C=C(\C)CC/C=C(\C)CCl)OC(C)=O (stereo unspecified)	> 100 µM	> 100 µM	–	> 100 µM	> 100 µM	> 100 µM	> 100 µM	> 100 µM	> 100 µM	–	–	–	–	–	–	–	–	–	–	–
O=c1[nH]c(=O)n(C2CC(O)C(CO)O2)cc1COCC(F)(F)F (stereo unspecified)	> 100 µM	> 100 µM	–	> 100 µM	> 100 µM	> 100 µM	> 100 µM	> 100 µM	> 100 µM	–	–	–	–	–	–	–	–	–	–	–
O=C([CH-]C(=O)c1ccccc1)c1ccccc1.O=C([CH-]C(=O)c1ccccc1)c1ccccc1.O=C([CH-]C(=O)c1ccccc1)c1ccccc1.[Cl-].[Zr+4]	–	–	–	> 100 µM	39.4 µM	> 100 µM	> 100 µM	41.2 µM	> 100 µM	–	–	33.2 µM	10.6 µM	15.8 µM	12.8 µM	10 µM	35.9 µM	–	–	–
CCC[CH2][Sn]([CH2]CCC)([O]C(=O)c1cccc(F)c1F)[O]C(=O)c1cccc(F)c1F	–	2.33 µM	3.61 µM	3.06 µM	2.68 µM	2.15 µM	2.85 µM	1.46 µM	2.44 µM	–	1.11 µM	1.63 µM	1.37 µM	0.838 µM	1.52 µM	0.41 µM	1.19 µM	0.291 µM	2.17 µM	–
c1ccc(C2CC(c3ccc4ccccc4c3)=Nc3ccccc3S2)cc1 (stereo unspecified)	–	48.6 µM	58.5 µM	33.1 µM	38.7 µM	31.1 µM	31.7 µM	34.6 µM	30.4 µM	–	–	–	–	–	–	–	–	–	–	–
O=C1C=C(Nc2ccc(S(=O)(=O)Nc3ncccn3)cc2)c2ccccc2C1=O	–	68.8 µM	82.6 µM	72.9 µM	30.5 µM	59.7 µM	35 µM	85.2 µM	35.9 µM	–	–	–	–	–	–	–	–	–	–	–
Clc1ccc(OCc2nnc3n2N=C(c2ccccc2)CS3)c(Cl)c1	> 100 µM	> 100 µM	–	–	–	> 100 µM	86.6 µM	> 100 µM	–	–	–	–	–	–	–	–	–	–	–	–

SMILES	TGI [1]	TGI [2]	TGI [3]	TGI [4]	TGI [5]	TGI [6]	TGI [7]	TGI [8]	TGI [9]	TGI [10]	GI50 [2]	GI50 [4]	GI50 [5]	GI50 [6]	GI50 [7]	GI50 [8]	GI50 [9]	GI50 [1]	GI50 [3]	GI50 [10]
C=Cc1c(C)c2cc3[nH]c(cc4nc(cc5nc(cc1[nH]2)C(C)=C5CCC(=O)N(CC)CC)C(CCC(=O)N(CC)CC)=C4C)c(C)c3C=C	–	–	–	> 100 µM	> 100 µM	–	> 100 µM	> 100 µM	> 100 µM	–	–	–	–	–	–	–	–	–	–	–
CNCCCNc1c2ccccc2nc2cccc([N+](=O)[O-])c12	0.0108 µM	0.0465 µM	–	0.0458 µM	0.0149 µM	0.0166 µM and 0.0211 µM	0.0279 µM	0.00798 µM	< 0.0318 µM and 0.0181 µM	0.089 µM	–	–	–	–	–	–	–	–	–	–
COC(=O)CC(=O)NCC1=CCC(=O)CC1	> 100 µM	> 100 µM	–	–	> 100 µM	> 100 µM	> 100 µM	> 100 µM	> 100 µM	–	–	–	–	–	–	–	–	–	–	–
NC(=S)N/N=C1/CN(c2ccc(Cl)c(Cl)c2)CC(=O)C1c1nc2ccccc2s1 (stereo unspecified)	> 100 µM	> 100 µM	–	> 100 µM	> 100 µM	> 100 µM	> 100 µM	> 100 µM	> 100 µM	–	–	–	–	–	–	–	–	–	–	–
CN(C)CCCCCNc1c2ccccc2nc2cccc([N+](=O)[O-])c12	0.0118 µM	0.0152 µM	> 0.1 µM	0.0532 µM	0.00504 µM	0.0125 µM and 0.018 µM	–	0.00257 µM	–	0.000689 µM	–	–	–	–	0.0097 µM	–	–	–	–	0.000212 µM
CC1=C(C(=O)Nc2ccccc2)C(c2cc(Cl)cc(Cl)c2)C(C(=O)Nc2ccccc2)=C(C)N1	18.1 µM	35 µM	26.6 µM	35.6 µM	22.1 µM	15.3 µM	28.8 µM	25.8 µM	25.3 µM	–	–	–	–	–	–	–	–	–	–	–
CC(C)C(=S)N(C)O	19.3 µM	–	–	> 100 µM	> 100 µM	> 100 µM	> 100 µM	72.3 µM	> 100 µM	–	–	–	–	–	–	–	–	–	–	–
C1CC2=C(C1)C1=S(S2)SC2=C1CCC2	> 100 µM	> 100 µM	> 100 µM	> 100 µM	> 100 µM	> 100 µM	> 100 µM	> 100 µM	> 100 µM	–	–	–	–	–	–	–	–	–	–	–
c1cc[c]([Sn]([O]c2cccc3cccnc23)([O]c2cccc3cccnc23)[c]2ccccc2)cc1	0.427 µM	1.78 µM	0.527 µM	3.72 µM	–	1.5 µM	3.22 µM	–	1.64 µM	–	0.43 µM	1.78 µM	–	0.41 µM	1.72 µM	–	0.481 µM	0.186 µM	0.25 µM	–
O=C(/C(=N/Nc1ccccc1)c1ccc([N+](=O)[O-])cc1)c1ccc([N+](=O)[O-])cc1	> 100 µM	> 100 µM	> 100 µM	> 100 µM	> 100 µM	–	> 100 µM	> 100 µM	> 100 µM	–	–	–	–	–	–	–	–	–	–	–
CCOC(=O)C1=C(C(=O)OCC)C2(c3ccccc3)N(O1)c1ccccc1C2(C)C (stereo unspecified)	–	–	83.3 µM	> 100 µM	> 100 µM	> 100 µM	> 100 µM	> 100 µM	–	–	–	–	–	–	–	–	–	–	–	–
C/C(O)=C(\N=O)C(=O)NCc1ccccc1	> 100 µM	> 100 µM	> 100 µM	> 100 µM	> 100 µM	> 100 µM	> 100 µM	> 100 µM	> 100 µM	–	–	–	–	–	–	–	–	–	–	–
O=C(Nc1ccc2c(c1)OCCO2)C(=O)c1c[nH]c2ccccc12	–	–	–	–	4.68 µM	37.5 µM	10.6 µM	32.9 µM	> 83 µM	> 100 µM	–	–	1.29 µM	1.98 µM	1.33 µM	2.62 µM	2.31 µM	–	–	1.31 µM
CCC(C)(O)c1cn(-c2ccc(S(=O)(=O)O)cc2)nn1 (stereo unspecified)	> 100 µM	> 100 µM	> 100 µM	> 100 µM	> 100 µM	> 100 µM	> 100 µM	> 100 µM	> 100 µM	–	–	–	–	–	–	–	–	–	–	–
CC(=O)O[C@H](C[C@H](C(C)C)N(C)C(=O)[C@@H](NC(=O)[C@H]1CCCCN1C)C(C)C)c1cccc(C(=O)N[C@@H](Cc2ccccc2)C[C@H](C)C(=O)O)n1	–	–	–	–	–	> 25 µM	> 5.29 µM	> 25 µM	> 25 µM	> 25 µM	–	–	0.00707 µM	0.05 µM	0.0333 µM	0.0159 µM	0.044 µM	–	–	0.00992 µM
COc1ccc(-c2nn3ncccc3c2-c2ccnc(Nc3ccc4c(c3)OCCO4)n2)cc1	–	–	–	–	> 25 µM	> 25 µM	> 25 µM	> 21 µM	> 25 µM	> 25 µM	–	–	9.86 µM	11.1 µM	> 17.2 µM	7.39 µM	6.5 µM	–	–	13.8 µM
C/C(CC(=O)Nc1ccc(NC(=O)C/C(C)=N\NC(N)=O)cc1)=N/NC(N)=O	> 53.3 µM	> 51.7 µM	> 100 µM	> 100 µM	> 100 µM	> 100 µM	> 100 µM	> 100 µM	> 100 µM	–	–	–	–	–	–	–	–	–	–	–
Cc1noc(C)c1-c1cnc2c(-c3ccc(C(=O)O)cc3)cn([C@@H](C)c3ccccn3)c2c1	–	–	–	–	32.1 µM	> 100 µM	> 100 µM	> 100 µM	> 100 µM	> 100 µM	–	–	0.959 µM	9.04 µM	3.71 µM	7.02 µM	2.99 µM	–	–	0.186 µM
O=C(CN(/C=C/C(=O)C(F)(F)F)c1ccccc1)c1ccc(Cl)cc1	–	–	–	–	46.7 µM	38.8 µM	48.2 µM	43.9 µM	29.9 µM	67.1 µM	–	–	21.6 µM	18.9 µM	18.8 µM	19.2 µM	16 µM	–	–	24.5 µM
C[C@H](NC(=O)c1c(C(F)F)nn(C)c1Oc1cccc(C(F)(F)F)c1)c1ccc(C(=O)O)cc1	–	–	–	–	> 100 µM	> 100 µM	> 100 µM	> 100 µM	> 100 µM	> 100 µM	–	–	> 100 µM	> 100 µM	> 100 µM	> 100 µM	> 100 µM	–	–	> 100 µM
